How the values were obtained:
[1] = target: T1, human recombinant Bcl-2 protein (Homo sapiens, UniProt P10415); test: Fluorescence polarization test for inhibition of BCL-2 binding to FITC-BIM; details: 5 nM BCL-2, 5 nM FITC-BIM, read-out: FP BCL-2 IC50
T1 construct: purchased Beijing Yigiao Shenzhou Biotechnology Co., Ltd. 10195-HOSE
Outline: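 FP competition: compound preincubated 15 min with recombinant human Bcl-2 (diluted to 5 nM), then FITC-BIM (diluted to 5 nM) added for 30 min at room temperature in PBS pH 7.4 with 1 mM DTT. Polarization read at 480/535 nm; IC50 from 8-point 4-fold series fitted by four-parameter equation.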

[2] = target: T2, human recombinant Bcl-XL protein (Homo sapiens, UniProt Q07817); test: Fluorescence polarization test for inhibition of BCL-XL binding to FITC-BIM; details: 10 nM BCL-XL, 10 nM FITC-BIM, read-out: FP BCL-XL IC50
T2 construct: purchased Beijing Yiqiao Shenzhou Biotechnology Co., Ltd. 10455-H0SE
T2 sequence (Q07817 whole entry): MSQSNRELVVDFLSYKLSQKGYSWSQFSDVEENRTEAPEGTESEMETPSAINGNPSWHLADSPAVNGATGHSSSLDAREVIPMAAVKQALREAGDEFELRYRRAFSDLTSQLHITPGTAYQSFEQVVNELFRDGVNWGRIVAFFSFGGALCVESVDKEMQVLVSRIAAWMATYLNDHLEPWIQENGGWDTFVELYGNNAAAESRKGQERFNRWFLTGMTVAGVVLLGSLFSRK
Outline: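 Human recombinant Bcl-XL (10 nM diluted stock) preincubated with compound 15 min at RT in PBS pH 7.4, 1 mM DTT, then FITC-BIM peptide (10 nM diluted stock) added for 30 min in dark. FP read at ex 480/em 535 nm; no-protein wells = 100% inhibition; IC50 from 8-point 4-fold dilution curve fit.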

[3] = tested on: RS4;11 cells (acute lymphoblastic leukemia cells); test: RS4;11 cell proliferation, CellTilter-Glo luminescence cell viability assay; assay type: cell-based; details: Homo sapiens, RS4-11; CTG readout after 48 hours
Outline: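 RS4;11 cells plated overnight were exposed for 48 h at 37 °C, 5% CO2 to an 8-point, 4-fold compound dilution series; the vehicle control contained 0.2% DMSO. Viability was read by CellTiter-Glo luminescence. Percent inhibition was referenced to no-cell and DMSO controls, and IC50 came from a four-parameter sigmoidal fit.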

T1 sequence (P10415 whole entry): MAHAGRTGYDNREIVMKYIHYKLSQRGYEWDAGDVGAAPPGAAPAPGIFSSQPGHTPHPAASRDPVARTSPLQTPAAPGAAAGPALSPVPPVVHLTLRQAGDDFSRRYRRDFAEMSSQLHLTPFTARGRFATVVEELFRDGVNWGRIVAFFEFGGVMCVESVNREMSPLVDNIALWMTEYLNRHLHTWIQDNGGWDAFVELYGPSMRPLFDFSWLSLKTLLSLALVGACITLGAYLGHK

Row | IC50 [1] | IC50 [2] | IC50 [3] | Compound
1 | > 100 nM | > 1000 nM | > 500 nM | C[C@H]1CN(c2ccc(C(=O)NS(=O)(=O)c3ccc(NC[C@@H]4COCCO4)c([N+](=O)[O-])c3)c(Oc3cnc4[nH]ccc4c3)c2)CCN1CC1=C(c2ccc(Cl)cc2)CC(C)(C)CC1 [Example 51, N-((4-((((R)-1,4-dioxan-2-yl)methyl)amino)-3-nitrophenyl)sulfonyl)-2-((1H-pyrrolo[2,3-b]pyridin-5-yl)oxy)-4-((S)-4-((4′-chloro-5,5-dimethyl-3,4,5,6-tetrahydro-[1,1′-biphenyl]-2-yl)methyl)-3-methylpiperazin-1-yl) benzamide]
2 | 1.46 nM | 953 nM | 3.1 nM | C[C@H]1CCC(CN2CCN(c3ccc(C(=O)NS(=O)(=O)c4cc(F)c(NC[C@H]5COCCO5)c([N+](=O)[O-])c4)c(Oc4cnc5[nH]ccc5c4)c3)C[C@H]2C)=C(c2ccc(Cl)cc2)C1 [Example 17, N-((4-((((S)-1,4-dioxan-2-yl)methyl)amino)-3-fluoro-5-nitrophenyl)sulfonyl)-2-((1H-pyrrolo[2,3-b]pyridin-5-yl)oxy)-4-((R)-4-(((S)-4′-chloro-5-methyl-3,4,5,6-tetrahydro-[1,1′-biphenyl]-2-yl)methyl)-3-methylpiperazin-1-yl)benzamide]
3 | 6.3 nM | > 1000 nM | 24 nM | C[C@@H]1CCC(CN2CCN(c3ccc(C(=O)NS(=O)(=O)c4ccc(NC[C@H]5COCCO5)c([N+](=O)[O-])c4)c(Oc4cnc5[nH]ccc5c4)c3)[C@H](C)C2)=C(c2ccc(Cl)cc2)C1 [Example 24]
4 | 3.33 nM | > 1000 nM | 6.6 nM | C[C@@H]1CN(c2ccc(C(=O)NS(=O)(=O)c3ccc(NC[C@H]4COCCO4)c([N+](=O)[O-])c3)c(Oc3cnc4[nH]ccc4c3)c2)CCN1CC1=C(c2ccc(Cl)cc2)CC(C)(C)C2(CC2)C1 [Example 34, N-((4-((((S)-1,4-dioxan-2-yl)methyl)amino)-3-nitrophenyl)sulfonyl)-2-((1H-pyrrolo[2,3-b]pyridin-5-yl)oxy)-4-((R)-4-((6-(4-chlorophenyl)-8,8-dimethylspiro[2.5]oct-5-en-5-yl)methyl)-3-methylpiperazin-1-yl) benzamide]
5 | 1.54 nM | > 1000 nM | 2.75 nM | C[C@@H]1CN(c2ccc(C(=O)NS(=O)(=O)c3ccc(NC[C@H]4COCCO4)c([N+](=O)[O-])c3)c(Oc3cnc4[nH]ccc4c3)c2)CCN1CC1=C(c2ccc(Cl)cc2)CC(C)(C)CC1 [Example 5, N-((4-((((S)-1,4-dioxan-2-yl)methyl)amino)-3-nitrophenyl)sulfonyl)-2-((1H-pyrrolo[2,3-b]pyridin-5-yl)oxy)-4-((R)-4-((4′-chloro-5,5-dimethyl-3,4,5,6-tetrahydro[1,1′-biphenyl]-2-yl)methyl)-3-methylpiperazin-1-yl) benzamide]
6 | > 100 nM | > 1000 nM | > 500 nM | C[C@H]1CN(CC2=C(c3ccc(Cl)cc3)CC(C)(C)CC2)CCN1c1ccc(C(=O)NS(=O)(=O)c2ccc(NCC3CCOCC3)c([N+](=O)[O-])c2)c(Oc2cnc3[nH]ccc3c2)c1 [Example 13, (S)-2-((1H-pyrrolo[2,3-b]pyridin-5-yl)oxy)-4-(4-((4′-chloro-5,5-dimethyl-3,4,5,6-tetrahydro-[1,1′-biphenyl]-2-yl)methyl)-2-methylpiperazin-1-yl)-N-((3-nitro-4-(((tetrahydro-2H-pyran-4-yl)methyl)amino)phenyl)sulfonyl)benzamide]
7 | 2.68 nM | > 1000 nM | 14.5 nM | C[C@@H]1CN(c2ccc(C(=O)NS(=O)(=O)c3ccc(NCC4CCOCC4)c([N+](=O)[O-])c3)c(Oc3cnc4[nH]ccc4c3)c2)CCN1CC1=C(c2ccc(Cl)cc2)CC(C)(C)C(C)(C)C1 [Example 39, (R)-2-((1H-pyrrolo[2,3-b]pyridin-5-yl)oxy)-4-(4-((4′-chloro-4,4,5,5-tetramethyl-3,4,5,6-tetrahydro-[1,1′-biphenyl]-2-yl)methyl)-3-methylpiperazin-1-yl)-N-((3-nitro-4--(((tetrahydro-2H-pyran-4-yl)methyl)amino)phenyl)sulfonyl)benzamide]
8 | 0.9 nM | > 1000 nM | 2.37 nM | C[C@@H]1CN(c2ccc(C(=O)NS(=O)(=O)c3cc(F)c(NC[C@H]4COCCO4)c([N+](=O)[O-])c3)c(Oc3cnc4[nH]ccc4c3)c2)CCN1CC1=C(c2ccc(Cl)cc2)CC(C)(C)CC1 [Example 6, N-((4-((((S)-1,4-dioxan-2-yl)methyl)amino)-3-fluoro-5-nitrophenyl)sulfonyl)-2-((1H-pyrrolo[2,3-b]pyridin-5-yl)oxy)-4-((R)-4-((4′-chloro-5,5-dimethyl-3,4,5,6-tetrahydro-[1,1′-biphenyl]-2-yl)methyl)-3-methylpiperazin-1-yl) benzamide]
9 | 4.22 nM | > 1000 nM | 52 nM | C[C@@H]1CN(CC2=C(c3ccc(Cl)cc3)CCC(C)(C)C2)CCN1c1ccc(C(=O)NS(=O)(=O)c2cc(F)c(NC[C@H]3COCCO3)c([N+](=O)[O-])c2)c(Oc2cnc3[nH]ccc3c2)c1 [Example 45, N-((4-((((S)-1,4-dioxan-2-yl)methyl)amino)-3-fluoro-5-nitrophenyl)sulfonyl)-2-((1H-pyrrolo[2,3-b]pyridin-5-yl)oxy)-4-((R)-4-((4′-chloro-4,4-dimethyl-3,4,5,6-tetrahydro-[1,1′-biphenyl]-2-yl)methyl)-2-methylpiperazin-1-yl)benzamide]
10 | > 100 nM | > 1000 nM | > 500 nM | C[C@H]1CN(c2ccc(C(=O)NS(=O)(=O)c3ccc(NCC4CCOCC4)c([N+](=O)[O-])c3)c(Oc3cnc4[nH]ccc4c3)c2)CCN1CC1=C(c2ccc(Cl)cc2)CC(C)(C)CC1 [Example 50, (S)-2-((1H-pyrrolo[2,3-b]pyridin-5-yl)oxy)-4-(4-((4′-chloro-5,5-dimethyl-3,4,5,6-tetrahydro-[1,1′-biphenyl]-2-yl)methyl)-3-methylpiperazin-1-yl)-N-((3-nitro-4--(((tetrahydro-2H-pyran-4-yl)methyl)amino)phenyl)sulfonyl) benzamide]
11 | 82 nM | > 1000 nM | 224 nM | C[C@H]1CN(c2ccc(C(=O)NS(=O)(=O)c3cc(F)c(NC[C@@H]4COCCO4)c([N+](=O)[O-])c3)c(Oc3cnc4[nH]ccc4c3)c2)CCN1CC1=C(c2ccc(Cl)cc2)CC(C)(C)CC1 [Example 56, N-((4-((((R)-1,4-dioxan-2-yl)methyl)amino)-3-fluoro-5-nitrophenyl)sulfonyl)-2-((1H-pyrrolo[2,3-b]pyridin-5-yl)oxy)-4-((S)-4-((4′-chloro-5,5-dimethyl-3,4,5,6-tetrahydro-[1,1′-biphenyl]-2-yl)methyl)-3-methylpiperazin-1-yl) benzamide]
12 | 1.77 nM | > 1000 nM | 15 nM | C[C@@H]1CN(c2ccc(C(=O)NS(=O)(=O)c3cc(F)c(NCC4CCOCC4)c([N+](=O)[O-])c3)c(Oc3cnc4[nH]ccc4c3)c2)CCN1CC1=C(c2ccc(Cl)cc2)CC(C)(C)C(C)(C)C1 [Example 40]
13 | 1.53 nM | > 1000 nM | 10 nM | C[C@@H]1CN(c2ccc(C(=O)NS(=O)(=O)c3ccc(NC[C@H]4COCCO4)c([N+](=O)[O-])c3)c(Oc3cnc4[nH]ccc4c3)c2)CCN1CC1=C(c2ccc(Cl)cc2)CC(C)(C)C(C)(C)C1 [Example 42, N-((4-((((S)-1,4-dioxan-2-yl)methyl)amino)-3-nitrophenyl)sulfonyl)-2-((1H-pyrrolo[2,3-b]pyridin-5-yl)oxy)-4-((R)-4-((4′-chloro-4,4,5,5-tetramethyl-3,4,5,6-tetrahydro-[1,1′-biphenyl]-2-yl)methyl)-3-methylpiperazin-1-yl) benzamide]
14 | 2.96 nM | > 1000 nM | 17 nM | C[C@@H]1CN(c2ccc(C(=O)NS(=O)(=O)c3cc(F)c(NC[C@H]4COCCO4)c([N+](=O)[O-])c3)c(Oc3cnc4[nH]ccc4c3)c2)CCN1CC1=C(c2ccc(Cl)cc2)CCC2(CC2)C1 [Example 35, N-((4-((((S)-1,4-dioxan-2-yl)methyl)amino)-3-fluoro-5-nitrophenyl)sulfonyl)-2-((1H-pyrrolo[2,3-b]pyridin-5-yl)oxy)-4-((R)-4-((6-(4-chlorophenyl)spiro[2.5]oct-5-en-5-yl)methyl)-3-methylpiperazin-1-yl)benzamide]
15 | 3.06 nM | > 1000 nM | 6.4 nM | C[C@@H]1CN(c2ccc(C(=O)NS(=O)(=O)c3ccc(NCC4CCN(C5COC5)CC4)c([N+](=O)[O-])c3)c(Oc3cnc4[nH]ccc4c3)c2)CCN1CC1=C(c2ccc(Cl)cc2)CC(C)(C)CC1 [Example 3, (R)-2-((1H-pyrrolo[2,3-b]pyridin-5-yl)oxy)-4-(4-((4′-chloro-5,5-dimethyl-3,4,5,6-tetrahydro-[1,1′-biphenyl]-2-yl)methyl)-3-methylpiperazin-1-yl)-N-((3--nitro-4(((1-(3-oxetanyl)piperidin-4-yl)methyl)amino)phenyl)sulfonyl) benzamide]
